Ends that are not written are not given here.
Key:
[1] = test system: activated (TNFα and IL1β treated) HLMVEC; assay: Cancer cell binding to activated human lung microvascular endothelial cells; assay type: cell-based; settings: 50 μM
Description: LSALT decreases binding of metastatic cancer cells to human lung microvascular endothelial cells (HLMVEC) activated by TNFα and IL1β.

[2] = test system: DPEP1-expressing COS1 monolayers; assay: Cancer cell binding to DPEP1-expressing COS1 monolayers; assay type: cell-based; settings: LSALT 50 μM
Description: Cos-1 cells were transfected with 3 μg of human DPEP-1 cDNA. Transfected cells were reseeded 24 hours after on 12 or 24 well places. 48 hours later, 70 W melanoma cells expressing stable GFP-luciferase were harvested using Puck's EDTA and 10×10^3 cells were seeded on top of the DPEP-1 expressing Cos-1 monolayer. Cells were incubated for 4 hours at 37 C. After incubation cells were vigorously washed two times with PBS. Cells were then fixed using paraformaldehyde (4%). The number 70 W melanoma cells bound/adhered were counted under 10× magnification over 10 different field of views using an inverted fluorescence microscope (FIG. 24A). […] A unpaired 2-tailed Student's t-test was performed to compare the binding of 70 W melanoma cells to DPEP-1 transfected cells against the control of mock transfected cells. Values shown are from three independent experiments; asterisks (***) indicate P<0.001 as compared with mock transfected cells.
LSALT decreases binding of metastatic cancer cells to DPEP1-expressing COS1 monolayers in vitro. […] FIGS. 21B-C show quantification of murine melanoma B16-F10 (B) or murine breast cancer E0771.LMB (C) cells that bind to COS1 (control) or DPEP1 COS1 in the absence or presence of LSALT (50 μM).

[3] = Circular dichroism spectroscopy of LSALT peptide and analogs; assay type: physicochemical; parameters: Inducible Helical Structure (50% TFE-benign): unit not given here
Description: The physical and chemical properties of protein therapeutics are critical factors that influence the ease of manufacturing, development and clinical use. The LSALT peptide was evaluated in terms of its solubility, aggregation state and stability using a variety of biophysical methods.
In circular dichroism spectroscopy the ellipticity value at 222 nm is a measure of a-helical content. 50% trifluoroethanol is a hydrophobic solvent and induces α-helical structure if the structure can be induced. All of the peptides tested can be induced to adopt α-helical structure. The peptides are random coils in benign conditions (non-denaturing). The buffer conditions were aqueous phosphate, pH 7.0.

serum cytokines = assay: Plasma cytokine levels after LPS, Luminex Cytokine Arrays; assay type: in vivo, mouse; settings: SCID mice, LPS 0.5 mg/kg i.p., 4 hours
Description: 6-8 weeks old SCID mice were given an intraperitoneal injection of LPS (0.5 mg/kg) 5 minutes prior to intravenous injection of LSALT peptide or a control peptide. 4 hours following injection of LPS, blood was collected by cardiac puncture and changes in plasma cytokine levels were assessed using Luminex Cytokine Arrays. Bar graphs show the levels of different inflammatory mediators released in the plasma in the presence or absence of LSALT peptide and control peptide.
6-8 weeks old SCID mice were given an intraperitoneal injection of LPS (0.5 mg/kg) 5 minutes prior to intravenous injection of LSALT peptide or a control peptide. 4 hours following injection of LPS, blood was collected by cardiac puncture and changes in plasma cytokine levels were assessed using Luminex Cytokine Arrays. Bar graphs show the level of the anti-inflammatory cytokine IL-10 released in the plasma in LSALT peptide or control peptide in two independent experiments.

metastatic cancer cells = assay: Metastasis model in mice; assay type: in vivo; settings: peptide 1 mM

H-LSALTPSPSWLKYKAL [LSALT]
binding of murine melanoma cells (B16-F10) to activated HLMVEC [1]: decreased binding | binding of murine sarcoma cells (Tao-1) to activated HLMVEC [1]: decreased binding | binding of murine breast cancer cells (E0771.LMB) to DPEP1 transfected COS-1 cells [2]: inhibits binding of murine cancer cells to DPEP1 | binding of murine melanoma cells (B16-F10) to DPEP1 transfected COS-1 cells [2]: inhibits binding of murine cancer cells to DPEP1 | Inducible Helical Structure (50% TFE-benign) ([3]; 222 nm): 23,925 | [θ] (222 nm) 50% TFE ([3]; 222 nm, 50% TFE): −72298 | % Inducible Helical Structure (Inducible/50% TFE) ([3]; 222 nm, 50% TFE is considered 100% folded): 33.1% | [θ] (222 nm) Benign (No TFE) ([3]; 222 nm, benign buffer (100 mM KCl, 50 mM Na2HPO4/NaH2PO4, pH 7.0)): −48373 | secondary structure by CD ([3]; aqueous buffer / benign conditions, pH 7.0): minima at 222 nm characteristic of a α-helical conformation | levels of serum cytokines in response to LPS (serum cytokines): attenuates the levels of a number of different serum cytokines | plasma IL-10 in response to LPS (serum cytokines): increases the production of the anti-inflammatory mediator IL-10 | tumor burden in livers (liver metastatic lesions) (metastatic cancer cells; animals injected with 4T1 murine breast cancer cells): reduces tumor burden in livers of animals injected with metastatic cancer cells | tumor burden in livers and lungs (metastatic cancer cells; animals injected with metastatic cancer cells): reduces tumor burden in livers and lungs

From patent publication US11286278B2, “DPEP-1 binding agents and methods of use” (Arch Biopartners, Inc., priority 2018, dated 2022)
